Source: ChEMBL document CHEMBL1149823, “Identification of genotype-correlated sensitivity to selective kinase inhibitors by using high-throughput tumor cell line profiling” (Proc Natl Acad Sci U S A, 2007)

Assays:
[1] = molecular target: Hepatocyte growth factor receptor (Homo sapiens, UniProt P08581); test: Inhibition of Met by cellular assay
[2] = molecular target: Non-receptor tyrosine-protein kinase TYK2 (Homo sapiens, UniProt P29597); test: Inhibition of Tyk2 by cellular assay
[3] = molecular target: Tyrosine-protein kinase ZAP-70 (Homo sapiens, UniProt P43403); test: Inhibition of ZAP70 by cellular assay
Ephrin type-A receptor 3 = Ephrin type-A receptor 3 (Homo sapiens, UniProt P29320); test: Inhibition of EphA3 by cellular assay
Ephrin type-B receptor 4 = Ephrin type-B receptor 4 (Homo sapiens, UniProt P54760); test: Inhibition of EphB4 by cellular assay
[4] = molecular target: T1, Vascular endothelial growth factor receptor 2 (Homo sapiens, UniProt P35968)
T1 sequence (P35968 whole entry): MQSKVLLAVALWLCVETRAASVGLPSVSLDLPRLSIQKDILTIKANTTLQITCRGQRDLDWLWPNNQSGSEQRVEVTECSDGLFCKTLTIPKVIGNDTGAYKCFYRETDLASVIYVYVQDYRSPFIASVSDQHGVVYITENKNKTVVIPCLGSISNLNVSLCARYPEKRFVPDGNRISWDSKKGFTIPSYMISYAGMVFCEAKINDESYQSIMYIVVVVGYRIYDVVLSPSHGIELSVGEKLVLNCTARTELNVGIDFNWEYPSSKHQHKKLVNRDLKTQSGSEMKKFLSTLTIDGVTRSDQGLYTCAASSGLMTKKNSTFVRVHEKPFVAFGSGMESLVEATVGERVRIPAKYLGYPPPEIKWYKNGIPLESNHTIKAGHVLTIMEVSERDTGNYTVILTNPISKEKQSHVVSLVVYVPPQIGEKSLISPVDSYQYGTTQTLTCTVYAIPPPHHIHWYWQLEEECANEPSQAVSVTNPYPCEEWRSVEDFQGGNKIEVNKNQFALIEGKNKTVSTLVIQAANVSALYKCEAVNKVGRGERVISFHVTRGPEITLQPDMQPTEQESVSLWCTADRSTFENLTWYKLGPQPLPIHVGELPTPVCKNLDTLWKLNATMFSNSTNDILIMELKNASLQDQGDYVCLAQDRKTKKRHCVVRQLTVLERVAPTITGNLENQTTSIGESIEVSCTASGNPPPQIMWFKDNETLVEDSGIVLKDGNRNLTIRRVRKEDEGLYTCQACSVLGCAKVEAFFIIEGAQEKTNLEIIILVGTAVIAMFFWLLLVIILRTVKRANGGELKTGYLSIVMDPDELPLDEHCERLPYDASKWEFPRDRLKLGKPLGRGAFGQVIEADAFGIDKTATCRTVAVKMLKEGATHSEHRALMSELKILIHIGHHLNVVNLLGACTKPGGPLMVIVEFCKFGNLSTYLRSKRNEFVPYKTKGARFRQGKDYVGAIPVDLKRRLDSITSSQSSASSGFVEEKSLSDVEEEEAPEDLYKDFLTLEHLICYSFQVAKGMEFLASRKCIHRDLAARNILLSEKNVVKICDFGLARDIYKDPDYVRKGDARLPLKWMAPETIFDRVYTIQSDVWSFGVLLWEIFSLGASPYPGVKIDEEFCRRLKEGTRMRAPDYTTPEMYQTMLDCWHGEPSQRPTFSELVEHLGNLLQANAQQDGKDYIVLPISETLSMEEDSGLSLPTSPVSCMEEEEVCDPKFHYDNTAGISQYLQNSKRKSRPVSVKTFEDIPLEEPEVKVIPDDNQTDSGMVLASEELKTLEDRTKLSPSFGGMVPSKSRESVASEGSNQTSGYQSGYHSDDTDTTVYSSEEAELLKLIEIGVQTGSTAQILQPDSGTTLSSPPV
Description: Inhibition of KDR by cellular assay

[5] = molecular target: Proto-oncogene tyrosine-protein kinase Src (Homo sapiens, UniProt P12931); test: Inhibition of Src by cellular assay; assay type: functional
[6] = molecular target: Fibroblast growth factor receptor 1 (Homo sapiens, UniProt P11362)
Description: Inhibition of FGFR1 by cellular assay

[7] = molecular target: Vascular endothelial growth factor receptor 1 (Homo sapiens, UniProt P17948)
Description: Inhibition of Flt1 by cellular assay

[8] = molecular target: Mast/stem cell growth factor receptor Kit (Homo sapiens, UniProt P10721)
Description: Inhibition of c-Kit by cellular assay

[9] = molecular target: Tyrosine-protein kinase Lck (Homo sapiens, UniProt P06239)
Chain of Tyrosine-protein kinase Lck (P06239 whole entry): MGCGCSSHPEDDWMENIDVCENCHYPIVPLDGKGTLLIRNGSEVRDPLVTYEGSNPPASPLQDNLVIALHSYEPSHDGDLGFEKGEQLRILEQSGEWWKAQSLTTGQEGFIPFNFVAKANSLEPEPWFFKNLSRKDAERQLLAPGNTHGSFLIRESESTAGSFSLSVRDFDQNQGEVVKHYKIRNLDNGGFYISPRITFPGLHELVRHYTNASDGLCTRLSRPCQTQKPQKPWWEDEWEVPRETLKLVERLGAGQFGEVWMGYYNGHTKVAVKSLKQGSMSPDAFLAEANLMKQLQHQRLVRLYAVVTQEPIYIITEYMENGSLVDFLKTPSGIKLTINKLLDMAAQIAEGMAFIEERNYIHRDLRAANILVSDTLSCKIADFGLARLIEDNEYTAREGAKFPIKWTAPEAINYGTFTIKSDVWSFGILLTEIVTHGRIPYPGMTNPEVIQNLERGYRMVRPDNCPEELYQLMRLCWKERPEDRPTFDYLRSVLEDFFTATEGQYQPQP
Description: Inhibition of Lck by cellular assay

[10] = molecular target: Platelet-derived growth factor receptor alpha (Homo sapiens, UniProt P16234)
Chain of Platelet-derived growth factor receptor alpha (P16234 whole entry): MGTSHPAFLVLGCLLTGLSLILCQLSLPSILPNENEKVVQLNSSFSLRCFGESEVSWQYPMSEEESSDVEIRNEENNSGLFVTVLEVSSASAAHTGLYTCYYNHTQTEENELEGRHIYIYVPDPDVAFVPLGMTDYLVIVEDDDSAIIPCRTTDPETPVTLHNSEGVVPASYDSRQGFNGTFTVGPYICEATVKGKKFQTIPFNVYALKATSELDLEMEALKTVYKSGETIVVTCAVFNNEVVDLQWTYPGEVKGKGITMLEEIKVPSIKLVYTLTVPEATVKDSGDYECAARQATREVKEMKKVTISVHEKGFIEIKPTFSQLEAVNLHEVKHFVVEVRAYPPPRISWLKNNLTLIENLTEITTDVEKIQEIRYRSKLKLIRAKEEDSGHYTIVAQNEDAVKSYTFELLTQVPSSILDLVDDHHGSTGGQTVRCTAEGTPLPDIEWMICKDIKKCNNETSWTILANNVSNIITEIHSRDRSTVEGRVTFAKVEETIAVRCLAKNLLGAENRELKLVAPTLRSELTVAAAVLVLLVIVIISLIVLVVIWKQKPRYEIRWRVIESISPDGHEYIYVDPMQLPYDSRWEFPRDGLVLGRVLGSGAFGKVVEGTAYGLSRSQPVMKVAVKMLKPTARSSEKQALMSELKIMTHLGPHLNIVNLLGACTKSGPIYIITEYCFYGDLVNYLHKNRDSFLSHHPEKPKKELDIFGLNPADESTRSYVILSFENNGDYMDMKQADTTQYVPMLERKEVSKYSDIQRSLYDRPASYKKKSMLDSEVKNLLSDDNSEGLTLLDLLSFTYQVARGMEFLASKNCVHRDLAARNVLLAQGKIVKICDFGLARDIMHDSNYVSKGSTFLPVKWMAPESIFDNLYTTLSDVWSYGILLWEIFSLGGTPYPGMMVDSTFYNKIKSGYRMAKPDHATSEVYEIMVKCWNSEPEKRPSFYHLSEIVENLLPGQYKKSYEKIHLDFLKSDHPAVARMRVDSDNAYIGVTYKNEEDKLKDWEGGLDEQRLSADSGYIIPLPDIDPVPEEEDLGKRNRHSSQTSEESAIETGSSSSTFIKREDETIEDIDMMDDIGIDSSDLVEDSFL
Description: Inhibition of PDGFRalpha by cellular assay

[11] = molecular target: Platelet-derived growth factor receptor beta (Homo sapiens, UniProt P09619)
Description: Inhibition of PDGFRbeta by cellular assay

[12] = molecular target: Proto-oncogene tyrosine-protein kinase receptor Ret (Homo sapiens, UniProt P07949)
Description: Inhibition of Ret by cellular assay

Angiopoietin-1 receptor = Angiopoietin-1 receptor (Homo sapiens, UniProt Q02763)
Description: Inhibition of Tie2 by cellular assay

[13] = molecular target: Fibroblast growth factor receptor 3 (Homo sapiens, UniProt P22607)
[14] = molecular target: Receptor-type tyrosine-protein kinase FLT3 (Homo sapiens, UniProt P36888)
Description: Inhibition of FLT3 by cellular assay

[15] = molecular target: ALK tyrosine kinase receptor (Homo sapiens, UniProt Q9UM73)
Description: Inhibition of ALK by cellular assay

[16] = molecular target: Macrophage-stimulating protein receptor (Homo sapiens, UniProt Q04912)
Insulin receptor = Insulin receptor (Homo sapiens, UniProt P06213)
Chain of Insulin receptor (P06213 28-758 limits assumed): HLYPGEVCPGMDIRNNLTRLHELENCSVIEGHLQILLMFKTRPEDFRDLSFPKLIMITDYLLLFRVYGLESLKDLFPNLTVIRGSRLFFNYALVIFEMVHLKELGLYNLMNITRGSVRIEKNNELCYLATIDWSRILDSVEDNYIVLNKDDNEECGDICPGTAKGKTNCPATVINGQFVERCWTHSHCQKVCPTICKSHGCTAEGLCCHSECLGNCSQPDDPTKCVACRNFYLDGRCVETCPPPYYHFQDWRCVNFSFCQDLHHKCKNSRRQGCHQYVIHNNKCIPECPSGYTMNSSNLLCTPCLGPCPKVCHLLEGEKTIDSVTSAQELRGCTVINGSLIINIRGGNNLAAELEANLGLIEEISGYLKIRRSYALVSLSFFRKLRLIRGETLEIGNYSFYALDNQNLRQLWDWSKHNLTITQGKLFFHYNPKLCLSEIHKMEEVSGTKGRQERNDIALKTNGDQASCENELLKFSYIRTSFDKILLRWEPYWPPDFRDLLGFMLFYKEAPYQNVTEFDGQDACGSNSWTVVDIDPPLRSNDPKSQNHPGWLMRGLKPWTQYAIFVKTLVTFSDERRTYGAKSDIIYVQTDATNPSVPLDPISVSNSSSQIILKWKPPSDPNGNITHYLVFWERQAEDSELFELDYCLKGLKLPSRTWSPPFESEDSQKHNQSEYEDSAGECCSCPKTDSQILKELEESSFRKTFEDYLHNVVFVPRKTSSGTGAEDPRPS
Chain of Insulin receptor (P06213 763-1382 limits assumed): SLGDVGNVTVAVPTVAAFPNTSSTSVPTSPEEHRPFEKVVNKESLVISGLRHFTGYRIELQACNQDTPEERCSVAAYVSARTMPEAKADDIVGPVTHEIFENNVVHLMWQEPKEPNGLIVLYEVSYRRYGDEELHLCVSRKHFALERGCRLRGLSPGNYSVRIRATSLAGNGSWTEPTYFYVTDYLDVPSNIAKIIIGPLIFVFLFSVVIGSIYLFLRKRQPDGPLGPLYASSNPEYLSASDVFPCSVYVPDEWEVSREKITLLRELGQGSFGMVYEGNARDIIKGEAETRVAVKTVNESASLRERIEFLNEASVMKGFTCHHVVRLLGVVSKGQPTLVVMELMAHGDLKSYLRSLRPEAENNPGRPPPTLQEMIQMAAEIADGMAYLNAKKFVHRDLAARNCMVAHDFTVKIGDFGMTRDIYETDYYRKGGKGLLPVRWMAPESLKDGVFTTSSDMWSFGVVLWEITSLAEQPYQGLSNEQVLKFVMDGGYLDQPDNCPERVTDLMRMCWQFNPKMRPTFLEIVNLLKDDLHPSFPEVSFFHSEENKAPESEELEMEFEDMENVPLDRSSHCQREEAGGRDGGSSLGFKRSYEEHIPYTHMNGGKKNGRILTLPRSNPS
Description: Inhibition of InsR by cellular assay

[17] = molecular target: High affinity nerve growth factor receptor (Homo sapiens, UniProt P04629)
Chain of High affinity nerve growth factor receptor (P04629 whole entry): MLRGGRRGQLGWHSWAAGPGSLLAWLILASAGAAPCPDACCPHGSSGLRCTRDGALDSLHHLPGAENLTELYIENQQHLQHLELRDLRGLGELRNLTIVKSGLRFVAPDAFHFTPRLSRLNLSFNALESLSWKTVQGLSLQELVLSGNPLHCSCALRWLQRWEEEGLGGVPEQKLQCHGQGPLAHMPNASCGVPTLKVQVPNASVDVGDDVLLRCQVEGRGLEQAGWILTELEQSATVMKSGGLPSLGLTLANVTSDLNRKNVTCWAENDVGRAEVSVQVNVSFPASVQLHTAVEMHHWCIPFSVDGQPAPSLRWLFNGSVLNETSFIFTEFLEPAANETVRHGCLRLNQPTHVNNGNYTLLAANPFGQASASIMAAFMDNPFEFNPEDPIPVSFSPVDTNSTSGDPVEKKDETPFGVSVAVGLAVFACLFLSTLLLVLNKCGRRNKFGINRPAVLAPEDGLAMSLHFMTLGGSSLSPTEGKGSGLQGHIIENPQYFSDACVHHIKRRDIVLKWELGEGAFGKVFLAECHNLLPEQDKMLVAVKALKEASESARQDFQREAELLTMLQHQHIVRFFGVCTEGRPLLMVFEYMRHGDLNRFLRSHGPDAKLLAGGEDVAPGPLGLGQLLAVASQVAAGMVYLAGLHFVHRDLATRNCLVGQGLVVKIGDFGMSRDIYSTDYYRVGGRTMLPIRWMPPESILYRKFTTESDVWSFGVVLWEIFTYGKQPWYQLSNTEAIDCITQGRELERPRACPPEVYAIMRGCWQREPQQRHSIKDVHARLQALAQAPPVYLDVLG

IMR-90 = test: Cytotoxicity against human IMR90 cells assessed as fraction of viable cells after 72 hrs relative to control; assay type: functional
[18] = Cytotoxicity against human G-292 Clone A141B1 cells assessed as fraction of viable cells after 72 hrs relative to control; assay type: functional
SNU1 = test: Cytotoxicity against human SNU1 cells assessed as fraction of viable cells after 72 hrs relative to control; assay type: functional
SNU-5 = test: Cytotoxicity against human SNU5 cells assessed as fraction of viable cells after 72 hrs relative to control; assay type: functional
[19] = Cytotoxicity against human Hs 707(A).T cells assessed as fraction of viable cells after 72 hrs relative to control; assay type: functional
MG-63 = test: Cytotoxicity against human MG63 cells assessed as fraction of viable cells after 72 hrs relative to control; assay type: functional
[20] = Inhibition of Mek
[21] = Inhibition of PDGF
[22] = molecular target: T1, Vascular endothelial growth factor receptor 2; remark: listed apart in the source
Description: Inhibition of VEGFR2 by cellular assay

Description for cells: Inhibition of Bcr-abl by cellular assay

**Q.** Which EC50 [1] does the source give for Cc1ccc(NC(=O)c2cccc(C(F)(F)F)c2)cc1N1Cc2cnc(N)nc2N(C)C1=O here?
**A.** > 2000 nM

**Q.** And the EC50 [2]?
**A.** > 2000 nM

**Q.** And the EC50 [3]?
**A.** > 2000 nM

**Q.** And the EC50 (Ephrin type-A receptor 3)?
**A.** 2 nM

**Q.** And the EC50 (Ephrin type-B receptor 4)?
**A.** 4 nM

**Q.** And the EC50 [4]?
**A.** 22 nM

**Q.** And the EC50 [5]?
**A.** 13 nM

**Q.** And the EC50 [6]?
**A.** 80 nM

**Q.** And the EC50 [7]?
**A.** 236 nM

**Q.** What about the EC50 [8] of the same molecule?
**A.** 4 nM

**Q.** And the EC50 [9]?
**A.** 5 nM

**Q.** What about the EC50 [10] of the same molecule?
**A.** 4 nM

**Q.** And the EC50 [11]?
**A.** 6 nM

**Q.** What about the EC50 [12] of the same molecule?
**A.** 77 nM

**Q.** And the EC50 (Angiopoietin-1 receptor)?
**A.** 200 nM

**Q.** And the IC50 [13]?
**A.** 13 nM

**Q.** And the EC50 [14]?
**A.** > 2000 nM

**Q.** And the EC50 [15]?
**A.** > 2000 nM

**Q.** What about the EC50 [16] of the same molecule?
**A.** > 2000 nM

**Q.** And the EC50 (Insulin receptor)?
**A.** > 2000 nM

**Q.** What about the EC50 [17] of the same molecule?
**A.** > 2000 nM

**Q.** And the EC50 (cells)?
**A.** 3 nM

**Q.** Which Activity (IMR-90) does the source give for CC#CC(=O)Nc1ccc2ncnc(Nc3cccc(Br)c3)c2c1 here?
**A.** 0.854

**Q.** What about the Activity [18] of the same molecule?
**A.** 1.024

**Q.** And the Activity (SNU1)?
**A.** 1.135

**Q.** And the Activity (SNU-5)?
**A.** 1.244

**Q.** And the Activity [19]?
**A.** 1.31

**Q.** What about the Activity (MG-63) of the same molecule?
**A.** 0.97

**Q.** For CCN(CC)CCCCNc1ncc2cc(-c3cc(OC)cc(OC)c3)c(NC(=O)NC(C)(C)C)nc2n1 [PD-173074], which IC50 [20] is on record?
**A.** > 50000 nM

**Q.** And the IC50 [21]?
**A.** 19000 nM

**Q.** What about the EC50 [22] of the same molecule?
**A.** 250 nM
